# Source: patent US8039464B2, “Muscarinic antagonists with PARP and SIR modulating activity as agents for inflammatory diseases” (ProteoSys AG, priority 2004, dated 2011)
# Values joined by “and” are separate entries in the source; they are usually repeats but may differ in a detail not shown here. Identical values can stand only once. “Also recorded” adds a separate entry of the source. Like-named read-outs stand apart in the source and are kept apart here.
# How the values were obtained:
# [1] = system: poly-ADP-ribosylated proteins; experiment: PARP inhibition under cellular conditions (Western blot of poly-ADP-ribosylated proteins); type: cell-based; details: ischemic insult of neural cells by KCN/glucose deprivation; read-out: IC 50 of decrease of poly-ADP-ribosylated proteins
# [2] = system: iNOS and Cox-2; experiment: Cox-2 and iNOS expression after LPS challenge (Western blot); type: cell-based; details: LPS 100 ng/ml for 60 min
# Method: (§1) Cell pellets were further investigated by Western blot staining with anti Cox-2 and anti iNOS antibodies of 1D polyacrylamide gels.
# (§2) Cell survival was assessed by Trypan Blue staining.
# [3] = target: T1, SIR-2 (Mus musculus, UniProt Q923E4); experiment: SIR2 activity assay (CycLex SIR2 Assay kit); type: biochemical, murine
# T1 construct: Using a raw extract from murine embryonic stem cells; host or cells: murine embryonic stem cells (raw extract)
# T1 sequence (Q923E4 2-737 limits assumed): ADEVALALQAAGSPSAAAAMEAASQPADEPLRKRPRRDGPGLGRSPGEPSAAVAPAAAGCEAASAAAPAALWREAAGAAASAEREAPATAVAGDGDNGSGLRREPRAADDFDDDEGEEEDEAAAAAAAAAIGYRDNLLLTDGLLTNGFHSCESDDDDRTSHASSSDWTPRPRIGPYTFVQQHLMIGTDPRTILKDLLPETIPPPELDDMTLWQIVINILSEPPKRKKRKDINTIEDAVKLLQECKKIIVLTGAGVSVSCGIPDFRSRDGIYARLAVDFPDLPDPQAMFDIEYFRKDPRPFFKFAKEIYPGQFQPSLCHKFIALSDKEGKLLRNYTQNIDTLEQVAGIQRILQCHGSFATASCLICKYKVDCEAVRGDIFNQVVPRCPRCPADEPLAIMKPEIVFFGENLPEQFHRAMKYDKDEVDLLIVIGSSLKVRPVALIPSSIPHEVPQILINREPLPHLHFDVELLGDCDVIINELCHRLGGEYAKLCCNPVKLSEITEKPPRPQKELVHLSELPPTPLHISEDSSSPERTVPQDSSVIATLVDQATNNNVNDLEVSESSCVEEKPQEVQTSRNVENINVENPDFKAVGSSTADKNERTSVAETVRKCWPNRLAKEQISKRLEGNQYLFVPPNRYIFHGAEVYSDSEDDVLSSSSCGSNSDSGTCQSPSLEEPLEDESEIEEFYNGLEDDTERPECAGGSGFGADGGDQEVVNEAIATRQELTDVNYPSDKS
# Text: For measurements of SIR2 activities, the quantitative test kit for NAD-dependent histone deacetylase activity CycLex® SIR2 Assay kit (Cat# CY-1151) was used according to instructions of manufacturer (CycLex Co., Ltd. 1063-103 Ohara, Tera-Sawaoka Ina, Nagano 396-0002 Japan). All substances tested in the SIR assay were cross-checked for their influence on the lysyl-endopeptidase. For this control an already deacetylated substrate peptide was used in order to measure directly lysyl-endopeptidase activity.
# For measurements of SIR2 activities, the quantitative test kit for NAD-dependent histone deacetylase activity CycLex® SIR2 Assay kit (Cat# CY-1151) was used according to instructions of manufacturer (CycLex Co., Ltd. 1063-103 Ohara, Tera-Sawaoka Ina, Nagano 396-0002 Japan).
# [4] = system: D3 embryonic stem (ES) cells, neurons; experiment: Cell culture model for chemical ischemia and neuroprotection (calcium imaging); type: cell-based, mice; details: β-methyl-cyclodextrin or filipin
# Method: For all experiments, D3 embryonic stem (ES) cells derived from 129/sv mice [Okabe et al., 1996] were cultivated for 12 days, with passages on days 2, 4, 7 and 9 as described previously [Sommer et al., 2004]. Insult conditions: Cells (24-well plates) were pre-incubated with or without 20 nM EPO in fresh medium for 24 hours at 37° C. Cells were rinsed once with low K^+ solution (140 mM NaCl, 4.7 mM KCl, 1.2 mM KH2PO4, 2.5 mM CaCl2, 1.2 mM MgSO4, 11 mM glucose, 15 mM Hepes-NaOH, pH 7.35). Cells (either with or without EPO pre-incubation) were incubated for up to 45 min (37° C.) with either low K^+ solution or with glucose-free low K^+ solution supplemented with 1 mM KCN (chemical ischemia solution [Kume et al., 2002]). Vitality control to asses numbers of surviving neurons was performed by a brief stimulation with a low dose of glutamate (10 μM). Afterwards, cells were washed three times with ice cold phosphate buffered saline (PBS), and then proteins were harvested. Suspended cells were pelleted at 500×G, and lysed into 9M urea 4% CHAPS. The cell lysate was desalted with a NAP-10 column (Amersham Biosciences), preequilibrated with the same buffer, and protein content was determined.
# Functional tests by calcium imaging were performed essentially as described [Sommer et al., 2004]. Briefly, cells were loaded with 2 μM of […] in DMEM for 45 min at 37° C. in the dark. Measurements of relative changes in [Ca^2+] were made on an inverted epifluorescence microscope (Olympus IX70 S1F2) with a Polychrom IV Monochromator (Xe-lamp, USHIO). Excitation wavelengths (λ1, λ2) and the emission wavelength were 340, 380 and 510 nm, respectively. Acquisition and analysis of data after appropriate stimulation were performed by using MetaFluor software (Universal Imaging Corporation). Image resolution was 168×129 pixels (binning 8×8, pixel size 6.8×6.8 μm). Only cells identified as neurons by morphological criteria and occasional immunostaining (not shown) and those whose calcium levels returned to the resting state after the first stimulation were taken into account. Controls included nominal zero calcium (negative) and 5 μM ionomycin (positive), 10 μM glutamate (positive) and depolarisation (55 mM K+) (positive). Pharmacological agents were applied by a multi-valve, single-output focal drug application device (ALA Scientific) with the perfusion system DAD-12. […] During each stimulation event 20 image pairs were acquired.
# [5] = target: T2, PARP-1 (Homo sapiens, UniProt P09874); experiment: PARP inhibition assay (R&D Systems, Cat. No. TA4669); type: biochemical
# T2 construct: purchased R&D Systems TA4669
# T2 sequence (P09874 whole entry): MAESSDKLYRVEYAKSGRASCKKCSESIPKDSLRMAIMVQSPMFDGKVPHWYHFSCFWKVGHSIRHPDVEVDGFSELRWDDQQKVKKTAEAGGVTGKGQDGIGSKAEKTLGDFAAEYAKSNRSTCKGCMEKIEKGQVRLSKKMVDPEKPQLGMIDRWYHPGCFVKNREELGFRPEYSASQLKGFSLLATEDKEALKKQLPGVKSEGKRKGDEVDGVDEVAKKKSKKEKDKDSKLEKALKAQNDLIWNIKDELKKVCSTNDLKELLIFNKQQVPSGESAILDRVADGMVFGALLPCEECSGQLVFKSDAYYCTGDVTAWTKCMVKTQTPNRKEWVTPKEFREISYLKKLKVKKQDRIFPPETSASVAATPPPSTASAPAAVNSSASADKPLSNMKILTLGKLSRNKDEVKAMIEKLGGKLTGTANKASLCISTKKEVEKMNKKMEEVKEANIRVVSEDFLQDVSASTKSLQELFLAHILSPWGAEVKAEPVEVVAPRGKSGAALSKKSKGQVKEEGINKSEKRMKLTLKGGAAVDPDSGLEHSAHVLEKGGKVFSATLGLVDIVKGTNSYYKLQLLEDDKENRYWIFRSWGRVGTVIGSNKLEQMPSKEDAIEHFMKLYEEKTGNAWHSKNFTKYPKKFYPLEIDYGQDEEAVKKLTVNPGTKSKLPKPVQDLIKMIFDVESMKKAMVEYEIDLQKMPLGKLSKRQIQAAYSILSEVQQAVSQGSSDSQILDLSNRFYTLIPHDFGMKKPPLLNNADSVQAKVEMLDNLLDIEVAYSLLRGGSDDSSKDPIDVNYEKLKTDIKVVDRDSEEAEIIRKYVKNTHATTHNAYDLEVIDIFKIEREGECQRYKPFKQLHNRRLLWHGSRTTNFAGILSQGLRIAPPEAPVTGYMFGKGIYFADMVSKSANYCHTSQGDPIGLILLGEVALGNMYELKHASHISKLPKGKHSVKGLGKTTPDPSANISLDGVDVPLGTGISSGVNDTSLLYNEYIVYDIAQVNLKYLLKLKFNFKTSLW
# Text: A PARP inhibition assay from R&D Systems was used (Cat. No. TA4669) according to instructions of the supplier.
# Under cellular conditions PARP-1 poly-ADP-ribosylates a host of nuclear proteins, including topoisomerase 1, 14-3-3 g and PARP-1 itself. Thus under cellular conditions, the self-modification of PARP-1 and dimerization are regulating its activity, moreover there is a tight interplay with PARG (poly-ADP-ribosyl-glycohydroxylase).
# [6] = system: undifferentiated V56 embryonic stem cells; experiment: LPS challenge, cell survival by Trypan Blue; type: cell-based; details: LPS 100 ng/ml for 60 min
# Method: as §1, §2
# [7] = system: A 549 cells; experiment: LPS challenge, cell survival by Trypan Blue; type: cell-based; details: LPS 100 ng/ml for 60 min
# Method: as §1, §2
# [8] = system: neurally differentiated V56 embryonic stem cells; experiment: LPS challenge, cell survival by Trypan Blue; type: cell-based; details: LPS 100 ng/ml for 60 min
# Method: as §1, §2
# [9] = system: 3T3 fibroblasts; experiment: LPS challenge, cell survival by Trypan Blue; type: cell-based; details: LPS 100 ng/ml for 60 min
# Method: as §1, §2
# [10] = Blood-brain-barrier passage: HPLC of plasma and CSF
# Text: J. Gastroenterol. 66, 35ff.; Homon et al., 1987, Therapeutic Drug Monitoring 9, 236ff.).
# [11] = system: traumatic brain injury (TBI); experiment: Controlled Cortical Impact Injury (traumatic brain injury model); type: in vivo
# Method: The model employed a direct shock to the dura via a burrhole, animals were treated according to the following schemes: Vehicle, LS-75, 8 animals per group starting the study, 2 spare animals; animals were sacrificed 44 h after injury, the endpoints were survival, post injury signs, lesion size by FLB (Fast Luxol Blue) and EMAP (Endothelial, Monocyte, Activating Peptide) staining. The dosing i.p. 100 mg/kg 2 h prior to injury; 40 mg/kg i.p. 2 h after injury; 40 mg/kg i.p. 8 h after injury; 40 mg/kg i.p. 17 h after injury; 40 mg/kg i.p. 25 h after injury; 70 mg/kg i.p. 34 h after injury; Formulation: LS-75 was prepared as a DMSO slurry (not solution) in a mortar and pestle and saline will be added slowly with grinding to reach 4% DMSO final concentration. The suspension is maintained at room temperature and the preparation used for the duration of the study. To vary dose, the volume injected may change. Volume for 100 mg/kg was be 4 mL/kg.
smiles,measurement,setting,value
"O=C1Nc2cccnc2Nc2ccccc21 [LS-75, 6H-pyrido[2,3-b][1,4]benzodiazepin-6-one]",IC50,[1],~0.3 µM
same,expression of inducible inflammatory markers iNOS and Cox-2,[2],decreased expression
same,IC50,[3],1000 to 5000 µM
same,SIR-2 inhibition (in words),[3],weak SIR 2 inhibitor; also recorded: weak SIR-2 inhibitors
same,SIR-2 inhibition (in words),[3]; listed as PBD/LS-75,weak inhibitory effect
same,neuroprotective effect under raft-disrupting conditions,[4],does not occur
same,PARP-1 inhibition (in words),[5],moderately strong PARP-1 inhibitor
same,IC50,"[5]; IC50 PARP-1 inhibition, R&D assay, recombinant monomeric PARP-1",18 µM and ~20 µM
same,protection from LPS challenge,[6],protect
same,protection from LPS challenge,[7],protect
same,protection from LPS challenge,[8],protect
same,protection from LPS challenge,[9],protect
same,passage through the BBB,[10]; LS-75 applied directly,substantial passage
same,LS-75 levels in CSF,"[10]; after Pirenzepine application, after 6 h",substantial increase
same,Kp,"[10]; rat, in vivo, 50 mg/kg",0.25 to 0.3
same,LS-75 in CSF after Mevastatin pretreatment,"[10]; rats, Mevastatin 0.15 mg/day for 14 days before oral gavage",far less
same,higher concentrations in plasma after Mevastatin pretreatment,"[10]; rats, Mevastatin 0.15 mg/day for 14 days before oral gavage of 50 mg Pirenzepine and LS-75",about 50%
same,reduction of secondary lesions,"[11]; 44 h after induction of TBI, i.p. dosing, compared to vehicle controls",approx. 50%
same,reduction of markers for cell damage (fast luxol blue and EMAP),"[11]; contralateral hippocampus, compared to controls",40-60%
